The source of these data is ChEMBL document CHEMBL1201862, “PubChem BioAssay data set” (2004).

Molecules are shown by their SMILES. Calls of active or inactive are those of the source.

One assay addresses Estrogen receptor beta (Homo sapiens, UniProt Q92731).
The target of a further assay is T1, Cytochrome P450 1A2 (Homo sapiens, UniProt P05177).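 Also: PubChem cytochrome P450 panel assay, CYP1A2 panel member.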
T1 sequence (P05177 whole entry): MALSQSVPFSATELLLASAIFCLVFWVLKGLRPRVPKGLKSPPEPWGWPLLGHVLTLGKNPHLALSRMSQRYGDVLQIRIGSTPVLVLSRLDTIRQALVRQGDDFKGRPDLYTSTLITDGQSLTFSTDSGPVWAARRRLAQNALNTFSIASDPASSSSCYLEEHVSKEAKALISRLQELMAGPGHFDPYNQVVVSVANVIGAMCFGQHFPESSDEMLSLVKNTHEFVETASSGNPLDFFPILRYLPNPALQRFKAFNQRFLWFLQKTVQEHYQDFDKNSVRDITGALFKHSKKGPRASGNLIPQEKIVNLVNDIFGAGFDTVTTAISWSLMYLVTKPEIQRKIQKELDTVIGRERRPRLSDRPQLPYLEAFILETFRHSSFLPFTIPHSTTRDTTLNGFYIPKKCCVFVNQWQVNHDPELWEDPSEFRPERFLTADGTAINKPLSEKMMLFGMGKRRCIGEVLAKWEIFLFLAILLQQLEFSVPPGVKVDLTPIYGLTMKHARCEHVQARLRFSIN

Assay [1] in a line: Luminescence Cell-Based Dose Response HTS to Identify Inhibitors of 5'UTR Stem-Loop Driven Prion Protein mRNA Translation in H4 Neuroglioblastoma Cells. [Related pubchem assays: 1827 (Project Summary), 1813 (Primary HTS)]. Format: functional.
Assay [2] is described as follows: cells. Format: functional, cell-based.
A short description of assay [3]: alpha-synuclein stem-loop luciferase translation blockers – H4 neuroglioma cells, luminescence, confirmation (AID 1988). Format: functional, cell-based.
A short description of assay [4]: luciferase reporter signal suppression in cells – H4 neuroglioma cells, luminescence, dose response (AID 1990). Format: functional, cell-based. On the technique in general: A reporter such as luciferase makes a cellular process visible.
Assay [5] in a line: alpha-synuclein stem-loop translation blockers – luminescence, H4 neuroglioblastoma cells, dose confirmation, confirmation (AID 2454).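 Also: H4 neuroglioblastoma cells carrying an alpha-synuclein 5'UTR luciferase reporter; potency for inhibition of the luciferase signal.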 Format: functional, cell-based.
The nature of assay [6]: luciferase reporter signal reduction – luminescence, H4-C neuroglioblastoma cells, dose response (AID 2458).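 Also: H4 neuroglioblastoma cells stably carrying a luciferase reporter gene fusion.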 Format: functional, cell-based.
The target of assay [7] is Voltage-dependent T-type calcium channel subunit alpha-1H (Homo sapiens, UniProt O95180). Format: functional.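 Also: channel activity triggered by adding a high calcium stimulation buffer.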
A short description of assay [8]: THP-1 cell cytotoxicity, dose response, cytotoxicity control for non-replicating M. tuberculosis project (AID 489025). Format: functional.
For the next assay, the target named is Melanocortin receptor 4 (Homo sapiens, UniProt P32245). Format: functional, cell-based.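 Also: Cell-based assay with luminescence read-out, confirmatory dose-response testing for agonist activity of biased ligands at MC4R; human U2OS cells with tagged receptor and beta-arrestin; potency of agonists that increase receptor coupling to beta-arrestin.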
Assay [9] is described as follows: Luminescence Cell-Based Dose Retest to Confirm Inhibitors of Cancer Stem Cells. [Related pubchem assays (depositor defined):AID2717, AID2721]. Format: functional. Particulars: Homo sapiens.
Assay [10] is described as follows: Trypanosoma cruzi growth suppression in host cells – NIH3T3 host cells, beta-gal luminescence, confirmation (AID 2044).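 Also: intracellular parasites grown in NIH/3T3 mouse fibroblasts as host cells; luminescent beta-galactosidase reporter signal from transgenic T. cruzi replicating inside host cells; inhibitors lower the luminescence signal.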 Format: functional, cell-based.
Assay [11] in a line: viability of HCT116 lacking mutant beta-catenin – cell-based, human colon tumor, dose response (AID 1045).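 Also: HCT116 colon tumor cells with beta catenin knocked out; cells exposed to compound for 60 hours.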 Format: functional.
Assay [12] in a line: viability of PTEN-deleted HCT116 cells – cell-based, HCT116 PTEN knockout, dose response (AID 1047).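 Also: HCT116 colon tumor cells with PTEN knocked out; cells exposed to compound for 60 hours before readout; potency for loss of cell viability measured by luminescence.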 Format: functional.
The nature of assay [13]: NIH3T3 cell viability loss – ATP luminescence, mouse fibroblasts, counter-screen, dose response (AID 2010).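 Also: cells exposed to compound for about 90 hours before reading.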 Format: functional, cell-based. On the technique in general: Counterscreens check selectivity or assay interference.
A short description of assay [14]: cells. Format: functional.
Assay [15] addresses DNA dC->dU-editing enzyme APOBEC-3G (Homo sapiens, UniProt Q9HC16). Description: Dose Response confirmation of small molecule APOBEC3G DNA Deaminase Inhibitors via a fluorescence-based single-stranded DNA deaminase assay. [Related pubchem assays (depositor defined):AID493012, AID493028]. Format: functional.
Assay [16] concerns the target T2, Polyadenylate-binding protein 1 (Homo sapiens, UniProt P11940). Description: MLLE domain peptide-binding blockers, IC50 – biochemical, fluorescence polarization, FITC-PAM2 peptide, dose response (AID 602259). Format: functional. Particulars: read-out: IC50_Mean. Background: Polarisation of emitted light reports the rotation of a fluorescent probe.
In assay [17] the target is T2, Polyadenylate-binding protein 1. Description: MLLE binding blockers, Cy5 peptide tracer – biochemical, fluorescence polarization, Cy5-PAM2 peptide, secondary, miRNA deadenylation inhibitor project, dose response (AID 602260). Format: functional. The following applies: read-out: IC50_Mean.
The target in assay [18] is Cyclin-dependent kinase 5/CDK5 activator 1 (Homo sapiens, UniProt Q00535). As to the kind of experiment: blockade of human CDK5 activity – biochemical, cherry-picked samples, set 2, dose response (AID 504545).
Another assay addresses T3, Protein RecA (Mycobacterium tuberculosis, UniProt P9WHJ3).
T3 sequence (P9WHJ3 whole entry): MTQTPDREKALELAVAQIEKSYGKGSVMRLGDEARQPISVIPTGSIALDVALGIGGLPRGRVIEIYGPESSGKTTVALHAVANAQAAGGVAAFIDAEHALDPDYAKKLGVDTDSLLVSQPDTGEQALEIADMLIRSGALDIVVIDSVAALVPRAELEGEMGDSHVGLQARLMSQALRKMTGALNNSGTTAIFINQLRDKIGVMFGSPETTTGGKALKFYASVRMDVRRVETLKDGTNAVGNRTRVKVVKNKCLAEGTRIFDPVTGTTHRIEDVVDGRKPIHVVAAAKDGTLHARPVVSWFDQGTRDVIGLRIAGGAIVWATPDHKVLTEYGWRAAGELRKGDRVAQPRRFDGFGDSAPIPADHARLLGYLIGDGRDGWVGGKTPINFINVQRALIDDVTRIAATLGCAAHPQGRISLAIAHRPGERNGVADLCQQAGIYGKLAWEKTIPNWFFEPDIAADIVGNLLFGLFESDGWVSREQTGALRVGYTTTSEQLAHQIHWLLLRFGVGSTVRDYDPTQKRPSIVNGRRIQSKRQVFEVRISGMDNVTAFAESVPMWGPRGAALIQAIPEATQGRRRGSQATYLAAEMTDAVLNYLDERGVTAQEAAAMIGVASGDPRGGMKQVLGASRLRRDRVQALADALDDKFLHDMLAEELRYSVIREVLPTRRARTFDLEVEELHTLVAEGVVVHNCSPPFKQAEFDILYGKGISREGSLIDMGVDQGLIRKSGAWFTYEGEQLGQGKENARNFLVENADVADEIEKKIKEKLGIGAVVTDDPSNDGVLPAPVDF
Description: Fluorescence Cell-Free Homogeneous Dose Retest to Identify Inhibitors of RecA-Intein Splicing Activity. [Related pubchem assays (depositor defined):AID2097, AID2223, AID489010, AID492950]. Format: functional.

Assay [19] can be described thus: A Cell Based Secondary Assay To Explore Cytotoxicity of Compounds that Sensitize Mycobacterium Tuberculosis to Beta-Lactam Antibiotics. Format: functional.
Assay [20] can be described thus: P. falciparum Dd2 growth inhibitors, dose response, SYBR Green, cherry-picked samples (AID 1159567). Format: functional, cell-based.
A short description of assay [21]: toxicity to human hepatoma HepG2 cells – cell-based, cherry-picked samples, cytotoxicity control, dose response (AID 1159577). Format: functional.

Chain of Estrogen receptor beta (Q92731 whole entry): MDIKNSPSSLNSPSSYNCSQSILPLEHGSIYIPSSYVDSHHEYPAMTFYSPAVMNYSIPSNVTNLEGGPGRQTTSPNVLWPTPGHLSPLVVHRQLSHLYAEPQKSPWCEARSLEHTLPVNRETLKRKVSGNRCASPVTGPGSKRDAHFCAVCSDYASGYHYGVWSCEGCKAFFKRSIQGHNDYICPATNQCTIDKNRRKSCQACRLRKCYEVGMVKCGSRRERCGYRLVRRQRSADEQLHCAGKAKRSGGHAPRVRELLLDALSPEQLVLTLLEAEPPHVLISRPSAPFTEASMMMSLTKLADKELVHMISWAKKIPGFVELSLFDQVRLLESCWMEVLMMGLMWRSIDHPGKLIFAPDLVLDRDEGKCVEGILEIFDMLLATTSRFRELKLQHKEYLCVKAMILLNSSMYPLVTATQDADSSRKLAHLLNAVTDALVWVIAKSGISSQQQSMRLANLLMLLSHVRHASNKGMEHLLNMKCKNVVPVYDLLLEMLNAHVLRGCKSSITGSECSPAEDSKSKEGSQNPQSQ
T2 sequence (P11940 whole entry, the tested form may be a part): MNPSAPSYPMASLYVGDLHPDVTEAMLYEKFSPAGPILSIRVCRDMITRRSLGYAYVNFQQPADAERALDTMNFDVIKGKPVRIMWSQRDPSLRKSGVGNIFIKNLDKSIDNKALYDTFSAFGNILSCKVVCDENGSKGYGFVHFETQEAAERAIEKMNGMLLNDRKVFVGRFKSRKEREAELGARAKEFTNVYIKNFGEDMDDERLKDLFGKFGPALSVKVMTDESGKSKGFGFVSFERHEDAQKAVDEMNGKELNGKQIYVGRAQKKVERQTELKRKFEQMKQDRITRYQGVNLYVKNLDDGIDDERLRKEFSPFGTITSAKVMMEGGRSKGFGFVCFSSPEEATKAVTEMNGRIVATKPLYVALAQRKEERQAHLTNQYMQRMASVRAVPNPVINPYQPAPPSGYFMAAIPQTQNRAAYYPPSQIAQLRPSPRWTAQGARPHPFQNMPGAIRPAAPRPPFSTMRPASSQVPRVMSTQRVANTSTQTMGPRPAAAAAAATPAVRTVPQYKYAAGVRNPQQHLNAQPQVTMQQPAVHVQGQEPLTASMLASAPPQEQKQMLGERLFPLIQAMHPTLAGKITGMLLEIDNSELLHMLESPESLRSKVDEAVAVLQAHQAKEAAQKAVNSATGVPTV
Chain of Cyclin-dependent kinase 5/CDK5 activator 1 (Q00535 whole entry): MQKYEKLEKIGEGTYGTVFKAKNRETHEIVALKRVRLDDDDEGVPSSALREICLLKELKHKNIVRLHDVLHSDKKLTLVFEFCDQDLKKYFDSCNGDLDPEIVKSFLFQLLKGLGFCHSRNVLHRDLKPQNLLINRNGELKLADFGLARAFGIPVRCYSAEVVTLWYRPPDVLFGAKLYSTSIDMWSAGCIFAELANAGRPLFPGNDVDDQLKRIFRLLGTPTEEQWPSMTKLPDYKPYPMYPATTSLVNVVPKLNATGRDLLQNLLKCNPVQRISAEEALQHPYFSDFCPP
Chain of Cyclin-dependent kinase 5/CDK5 activator 1 (Q15078 whole entry, further chain): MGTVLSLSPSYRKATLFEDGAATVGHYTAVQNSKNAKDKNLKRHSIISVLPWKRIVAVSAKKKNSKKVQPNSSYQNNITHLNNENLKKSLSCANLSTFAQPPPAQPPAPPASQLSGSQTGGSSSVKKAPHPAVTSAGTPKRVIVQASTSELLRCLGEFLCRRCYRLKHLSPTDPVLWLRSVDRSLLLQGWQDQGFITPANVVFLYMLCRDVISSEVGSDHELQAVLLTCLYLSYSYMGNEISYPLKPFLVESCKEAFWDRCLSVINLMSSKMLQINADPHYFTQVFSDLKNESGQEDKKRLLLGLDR
Chain of DNA dC->dU-editing enzyme APOBEC-3G (Q9HC16 whole entry, the tested form may be a part): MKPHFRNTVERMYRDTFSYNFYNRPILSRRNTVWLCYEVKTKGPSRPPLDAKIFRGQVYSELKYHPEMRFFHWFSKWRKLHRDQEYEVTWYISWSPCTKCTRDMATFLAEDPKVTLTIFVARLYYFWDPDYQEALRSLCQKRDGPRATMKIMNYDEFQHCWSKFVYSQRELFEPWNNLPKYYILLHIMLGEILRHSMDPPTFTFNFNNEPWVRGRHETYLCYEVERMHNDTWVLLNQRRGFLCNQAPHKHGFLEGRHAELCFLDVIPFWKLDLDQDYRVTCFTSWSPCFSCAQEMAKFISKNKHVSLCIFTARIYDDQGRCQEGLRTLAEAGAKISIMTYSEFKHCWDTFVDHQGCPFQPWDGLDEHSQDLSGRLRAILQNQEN
Chain of Voltage-dependent T-type calcium channel subunit alpha-1H (O95180 whole entry): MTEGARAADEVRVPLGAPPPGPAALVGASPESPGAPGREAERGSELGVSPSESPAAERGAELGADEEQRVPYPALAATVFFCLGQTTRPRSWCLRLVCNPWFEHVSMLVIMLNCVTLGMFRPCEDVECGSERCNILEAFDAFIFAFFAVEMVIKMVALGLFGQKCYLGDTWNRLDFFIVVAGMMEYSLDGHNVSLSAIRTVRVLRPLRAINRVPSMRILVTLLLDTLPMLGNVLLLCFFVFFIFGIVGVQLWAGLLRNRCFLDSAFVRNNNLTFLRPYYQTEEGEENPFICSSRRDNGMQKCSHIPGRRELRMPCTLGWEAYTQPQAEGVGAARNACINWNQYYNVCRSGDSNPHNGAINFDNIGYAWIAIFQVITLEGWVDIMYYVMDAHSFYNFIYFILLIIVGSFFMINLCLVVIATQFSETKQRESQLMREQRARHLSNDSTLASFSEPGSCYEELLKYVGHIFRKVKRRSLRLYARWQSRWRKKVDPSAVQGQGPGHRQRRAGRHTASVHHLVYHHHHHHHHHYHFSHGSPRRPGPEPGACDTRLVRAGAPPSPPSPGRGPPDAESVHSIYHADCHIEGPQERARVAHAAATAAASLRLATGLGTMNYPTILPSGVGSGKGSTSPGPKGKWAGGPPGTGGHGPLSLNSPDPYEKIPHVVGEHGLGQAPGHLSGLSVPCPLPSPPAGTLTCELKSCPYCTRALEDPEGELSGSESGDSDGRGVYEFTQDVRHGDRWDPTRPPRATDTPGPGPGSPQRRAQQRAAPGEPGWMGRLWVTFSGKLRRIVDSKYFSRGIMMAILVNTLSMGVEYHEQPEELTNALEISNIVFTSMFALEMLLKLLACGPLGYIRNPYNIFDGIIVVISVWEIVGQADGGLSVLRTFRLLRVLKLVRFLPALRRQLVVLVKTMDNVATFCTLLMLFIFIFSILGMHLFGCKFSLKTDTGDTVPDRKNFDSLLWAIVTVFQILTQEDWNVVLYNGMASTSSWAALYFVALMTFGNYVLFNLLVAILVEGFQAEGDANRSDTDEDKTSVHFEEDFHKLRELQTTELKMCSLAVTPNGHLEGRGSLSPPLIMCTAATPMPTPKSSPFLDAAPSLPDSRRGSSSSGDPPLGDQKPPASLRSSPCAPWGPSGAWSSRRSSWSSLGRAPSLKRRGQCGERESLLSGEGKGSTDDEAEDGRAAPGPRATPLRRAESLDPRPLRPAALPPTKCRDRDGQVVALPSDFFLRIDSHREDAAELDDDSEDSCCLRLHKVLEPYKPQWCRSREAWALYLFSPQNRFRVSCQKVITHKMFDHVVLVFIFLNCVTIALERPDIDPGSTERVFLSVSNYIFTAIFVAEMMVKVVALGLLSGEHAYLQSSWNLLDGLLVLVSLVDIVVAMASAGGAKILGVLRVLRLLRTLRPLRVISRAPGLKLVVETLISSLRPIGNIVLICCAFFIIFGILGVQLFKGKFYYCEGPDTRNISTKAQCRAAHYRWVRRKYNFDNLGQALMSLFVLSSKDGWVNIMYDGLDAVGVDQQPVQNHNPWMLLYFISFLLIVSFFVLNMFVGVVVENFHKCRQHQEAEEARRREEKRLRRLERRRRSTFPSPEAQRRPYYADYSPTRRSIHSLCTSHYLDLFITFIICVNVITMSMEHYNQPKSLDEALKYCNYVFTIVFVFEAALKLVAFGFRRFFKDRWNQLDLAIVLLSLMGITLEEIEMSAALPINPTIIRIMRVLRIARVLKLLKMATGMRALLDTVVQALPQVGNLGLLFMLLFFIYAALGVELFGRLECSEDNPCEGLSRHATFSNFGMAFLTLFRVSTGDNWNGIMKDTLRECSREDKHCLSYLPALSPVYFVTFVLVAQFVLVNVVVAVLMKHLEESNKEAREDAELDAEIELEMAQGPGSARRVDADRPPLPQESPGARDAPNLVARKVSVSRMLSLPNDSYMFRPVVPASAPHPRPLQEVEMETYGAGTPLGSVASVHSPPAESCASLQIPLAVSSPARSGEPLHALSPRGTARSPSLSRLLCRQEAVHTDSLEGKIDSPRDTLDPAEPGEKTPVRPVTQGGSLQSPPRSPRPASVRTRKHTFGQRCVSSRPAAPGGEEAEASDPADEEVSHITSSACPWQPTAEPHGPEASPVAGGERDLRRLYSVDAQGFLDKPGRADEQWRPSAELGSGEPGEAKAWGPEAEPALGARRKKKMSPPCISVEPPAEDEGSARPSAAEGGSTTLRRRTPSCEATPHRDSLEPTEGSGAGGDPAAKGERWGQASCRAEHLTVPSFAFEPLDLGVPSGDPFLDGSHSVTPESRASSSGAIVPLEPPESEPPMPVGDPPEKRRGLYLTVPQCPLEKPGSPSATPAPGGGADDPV
Chain of Melanocortin receptor 4 (P32245 whole entry): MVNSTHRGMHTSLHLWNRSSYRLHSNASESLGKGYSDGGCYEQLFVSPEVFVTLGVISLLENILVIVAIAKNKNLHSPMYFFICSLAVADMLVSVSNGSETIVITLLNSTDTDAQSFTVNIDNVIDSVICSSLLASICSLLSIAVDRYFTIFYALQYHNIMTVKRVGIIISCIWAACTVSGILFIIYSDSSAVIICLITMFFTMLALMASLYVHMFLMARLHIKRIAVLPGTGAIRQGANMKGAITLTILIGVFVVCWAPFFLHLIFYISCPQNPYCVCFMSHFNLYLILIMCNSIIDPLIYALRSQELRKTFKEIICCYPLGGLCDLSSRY

In the case of `Cc1ccccc1NC(=O)Cn1cnc2c1c(=O)n(C)c(=O)n2C`, the IC50 on Estrogen receptor beta was > 50 µM (not active). In addition, at Cytochrome P450 1A2, the AC50 was 15.8 µM (inconclusive).

As for `C/C=C(\C)C(=O)OC1C(C)=C2C(C1OC(=O)CCCCC)C(C)(OC(C)=O)CC(OC(=O)CCC)C1(O)C2OC(=O)C1(C)O` (stereo unspecified), the EC50 in assay [1] was < 0.1 µM (active); in “cells [2]” it was 0.228 µM (active); in assay [3], < 0.1 µM (active); in assay [4], < 0.1 µM (active); in assay [5], 0.047 µM (active); in [6], 0.051 µM (active).

Turning to `COc1ccc(OC)c(CCNC(=O)CS(=O)(=O)Cc2nc(-c3ccc(C)cc3)oc2C)c1`, the EC50 in assay [7] is 3.8 µM (active).

In the case of `OC(CNCCc1ccc(C(F)(F)F)cc1)COc1cccc2ccccc12` (stereo unspecified), in assay [8], the CC50 was 21.5 µM (active). Moreover, the EC50 was > 89.2 µM (inactive) at Melanocortin receptor 4; 0.631 µM (active) in [10]; 10.7 µM (active) in assay [11]; 12.7 µM (active) in [12]; > 60 µM (inconclusive) in assay [13]. In [9], the AC50 was 3.47 µM (active). For the same compound, the IC50 in the assay “cells [14]” is 21.7 µM (active).

Regarding `COc1ccccc1NC(=O)NC(N)=O`, the IC50 against Estrogen receptor beta is > 50 µM (not active).

Take `CCCOC(=O)c1c(NC(=O)C2CCCO2)sc(C(=O)OC)c1C` (stereo unspecified): the IC50 was 69.5 µM (active) in assay [15], > 66 µM (inactive) in [16] and > 66 µM (inactive) in assay [17]. For the same compound, the figures for the EC50 in assay [11] and in [12] were 28.2 µM (active) and 28.7 µM (active), respectively.

Turning to `Cc1n[nH]c(O)c1C(c1ccccc1[N+](=O)[O-])C(C#N)C#N` (stereo unspecified), in assay [18], the half-maximal activity concentration (AC50) is 61.1 µM (active). Moreover, the EC50 on Protein RecA was 3.93 µM (active).

On to `CC(C)(C)Nc1nc(Nc2ccc([N+](=O)[O-])cc2)nc(NC(C)(C)C)n1`, for which the EC50 in assay [1], in assay [3] and in assay [4] was > 120 µM (not active) throughout. In addition, in [19], the CC50 was > 40 µM (active).

Regarding `Cc1cccc(-c2ccc([C@@H]3[C@H](CO)N4CCCCN(S(=O)(=O)c5cccc(C)c5)C[C@@H]34)cc2)c1`, the AC50 was 0.864 µM (active) in assay [20] and 8.89 µM (active) in assay [21].

Usually AC50 stands for the midpoint of the concentration-response curve, whichever way the signal moves. The term EC50 denotes the concentration needed to bring the measured effect to its halfway point. A word on the CC50: it is the concentration that lowers cell viability or growth by half.
